Experiments:
PARP2 = target: T1, PARP2 (Homo sapiens, UniProt Q9UGN5); assay: […]NADP+ binding to immobilized protein (TLC); also inhibition of auto-PARylation
T1 construct: HIS-PARP2

PARP10 [1] = target: T2, PARP10 (Homo sapiens, UniProt Q53GL7); assay: […]NADP+ binding to immobilized protein (TLC); also inhibition of auto-MARylation
T2 construct: GST-PARP10
T2 sequence (Q53GL7 1-1025): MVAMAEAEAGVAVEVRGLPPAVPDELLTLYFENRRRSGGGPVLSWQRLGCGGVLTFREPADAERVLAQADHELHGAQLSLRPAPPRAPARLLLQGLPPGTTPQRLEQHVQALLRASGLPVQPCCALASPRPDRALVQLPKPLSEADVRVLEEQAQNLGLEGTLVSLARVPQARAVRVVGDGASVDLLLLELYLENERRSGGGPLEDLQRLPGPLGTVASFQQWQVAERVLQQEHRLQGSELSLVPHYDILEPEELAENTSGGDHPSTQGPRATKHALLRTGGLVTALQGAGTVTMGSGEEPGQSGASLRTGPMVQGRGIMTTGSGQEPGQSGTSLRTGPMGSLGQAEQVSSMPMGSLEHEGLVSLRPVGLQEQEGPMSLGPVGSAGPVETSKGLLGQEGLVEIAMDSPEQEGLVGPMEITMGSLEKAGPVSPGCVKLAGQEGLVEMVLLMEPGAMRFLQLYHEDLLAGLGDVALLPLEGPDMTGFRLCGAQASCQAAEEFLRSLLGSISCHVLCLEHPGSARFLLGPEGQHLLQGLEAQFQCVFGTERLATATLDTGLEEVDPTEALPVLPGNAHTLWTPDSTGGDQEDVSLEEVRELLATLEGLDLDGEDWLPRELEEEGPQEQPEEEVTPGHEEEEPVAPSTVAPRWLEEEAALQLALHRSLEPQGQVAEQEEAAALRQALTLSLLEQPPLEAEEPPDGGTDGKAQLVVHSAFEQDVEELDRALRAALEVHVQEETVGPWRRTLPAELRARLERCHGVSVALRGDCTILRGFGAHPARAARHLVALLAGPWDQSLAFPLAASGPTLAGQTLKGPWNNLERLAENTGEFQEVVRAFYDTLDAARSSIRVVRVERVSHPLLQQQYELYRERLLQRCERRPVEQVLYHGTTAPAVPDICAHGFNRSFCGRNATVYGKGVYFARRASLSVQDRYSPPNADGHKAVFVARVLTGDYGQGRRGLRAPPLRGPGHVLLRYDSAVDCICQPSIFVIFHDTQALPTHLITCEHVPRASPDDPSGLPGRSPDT

NADK = target: T3, NADK (Homo sapiens, UniProt O95544); assay: recombinant enzyme reaction, product confirmed by mass spectrometry; assay type: biochemical
T3 construct: recombinant NADK
T3 sequence (O95544 1-446): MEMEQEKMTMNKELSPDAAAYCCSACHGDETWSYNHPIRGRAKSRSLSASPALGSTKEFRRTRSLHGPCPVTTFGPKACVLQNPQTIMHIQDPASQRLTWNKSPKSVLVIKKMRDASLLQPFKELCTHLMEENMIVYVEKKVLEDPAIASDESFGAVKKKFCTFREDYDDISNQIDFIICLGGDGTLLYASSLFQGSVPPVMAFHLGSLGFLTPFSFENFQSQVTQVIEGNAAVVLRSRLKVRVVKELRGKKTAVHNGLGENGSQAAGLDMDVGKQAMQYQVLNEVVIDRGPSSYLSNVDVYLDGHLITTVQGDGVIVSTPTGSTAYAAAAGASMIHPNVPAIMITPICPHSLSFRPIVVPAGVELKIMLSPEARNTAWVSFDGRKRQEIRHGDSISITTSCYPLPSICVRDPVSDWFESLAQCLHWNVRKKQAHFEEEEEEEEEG

PARP1 [2] = target: T4, PARP1 (Homo sapiens, UniProt P09874); assay: ITC; also […]NADP+ pull-down binding and inhibition of auto-PARylation; parameters: catalytic domain (GST-PARP1 CAT, aa. 662–1014) for ITC
Target sequence in this assay (P09874 662-1014): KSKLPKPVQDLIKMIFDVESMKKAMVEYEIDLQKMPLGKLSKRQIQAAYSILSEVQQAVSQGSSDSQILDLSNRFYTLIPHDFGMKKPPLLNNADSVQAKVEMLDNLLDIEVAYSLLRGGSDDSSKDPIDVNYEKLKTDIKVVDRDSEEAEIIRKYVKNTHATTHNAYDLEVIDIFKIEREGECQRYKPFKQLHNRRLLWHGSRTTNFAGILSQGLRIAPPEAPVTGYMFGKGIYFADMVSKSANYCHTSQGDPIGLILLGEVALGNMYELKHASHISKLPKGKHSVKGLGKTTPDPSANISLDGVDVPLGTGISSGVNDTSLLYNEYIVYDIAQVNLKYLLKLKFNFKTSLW

PARP10 [3] = target: T2, PARP10; assay: in vitro auto-MARylation, autoradiography; assay type: biochemical
PARP1 [4] = target: T4, PARP1; assay: in vitro auto-PARylation, western blot and […]NAD+ autoradiography; assay type: biochemical; parameters: HIS-PARP1
Target sequence in this assay (P09874 2-1014): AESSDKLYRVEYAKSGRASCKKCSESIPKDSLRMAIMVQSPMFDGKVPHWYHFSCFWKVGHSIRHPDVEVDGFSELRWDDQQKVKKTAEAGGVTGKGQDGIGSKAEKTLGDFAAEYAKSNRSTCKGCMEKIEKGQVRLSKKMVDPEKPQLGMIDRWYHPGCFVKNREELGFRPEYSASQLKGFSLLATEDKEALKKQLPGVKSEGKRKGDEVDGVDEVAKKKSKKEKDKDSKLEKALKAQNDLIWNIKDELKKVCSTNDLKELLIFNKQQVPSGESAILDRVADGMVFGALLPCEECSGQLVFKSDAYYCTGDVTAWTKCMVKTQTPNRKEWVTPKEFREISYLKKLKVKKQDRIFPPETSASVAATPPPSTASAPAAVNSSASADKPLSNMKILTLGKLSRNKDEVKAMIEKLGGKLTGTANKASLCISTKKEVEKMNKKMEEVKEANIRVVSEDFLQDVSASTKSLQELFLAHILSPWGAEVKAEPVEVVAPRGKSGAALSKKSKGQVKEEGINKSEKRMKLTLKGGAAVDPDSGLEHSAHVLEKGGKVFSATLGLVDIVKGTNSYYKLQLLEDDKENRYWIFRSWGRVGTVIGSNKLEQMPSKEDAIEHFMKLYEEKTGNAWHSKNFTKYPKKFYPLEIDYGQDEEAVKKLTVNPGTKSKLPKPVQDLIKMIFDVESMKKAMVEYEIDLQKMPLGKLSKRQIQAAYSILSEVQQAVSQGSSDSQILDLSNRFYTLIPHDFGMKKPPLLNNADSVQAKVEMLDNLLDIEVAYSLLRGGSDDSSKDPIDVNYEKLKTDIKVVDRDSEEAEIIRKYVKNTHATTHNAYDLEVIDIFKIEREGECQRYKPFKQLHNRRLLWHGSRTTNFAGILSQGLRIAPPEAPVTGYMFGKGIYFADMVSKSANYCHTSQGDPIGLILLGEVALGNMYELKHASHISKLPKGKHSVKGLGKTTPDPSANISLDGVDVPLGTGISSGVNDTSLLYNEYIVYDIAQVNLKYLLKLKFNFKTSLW

T1 sequence (Q9UGN5 whole entry): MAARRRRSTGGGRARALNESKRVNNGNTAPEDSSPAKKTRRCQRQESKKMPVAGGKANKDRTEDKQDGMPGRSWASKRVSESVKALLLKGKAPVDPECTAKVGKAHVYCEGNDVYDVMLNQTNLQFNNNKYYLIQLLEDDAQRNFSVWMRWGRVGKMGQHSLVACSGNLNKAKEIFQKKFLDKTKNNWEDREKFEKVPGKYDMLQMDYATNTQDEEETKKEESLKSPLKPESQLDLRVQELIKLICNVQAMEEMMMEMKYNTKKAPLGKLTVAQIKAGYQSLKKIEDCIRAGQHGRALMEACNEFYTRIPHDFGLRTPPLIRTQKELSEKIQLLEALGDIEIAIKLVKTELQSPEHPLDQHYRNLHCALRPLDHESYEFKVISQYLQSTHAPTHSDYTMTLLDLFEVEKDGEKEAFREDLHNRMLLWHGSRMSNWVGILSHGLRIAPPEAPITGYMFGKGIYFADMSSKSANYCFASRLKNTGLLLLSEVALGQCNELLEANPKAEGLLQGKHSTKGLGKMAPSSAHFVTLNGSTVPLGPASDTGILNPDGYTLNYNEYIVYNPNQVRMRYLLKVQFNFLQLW

SMILES	[32P]NADP+ binding to immobilized protein (TLC); also inhibition of auto-PARylat (PARP2)	[32P]NADP+ binding to immobilized protein (TLC); also inhibition of auto-MARylat (PARP10 [1])	recombinant enzyme reaction, product confirmed by mass spectrometry (NADK)	Kd (PARP1 [2]) [µM]	in vitro auto-MARylation, autoradiography (PARP10 [3])	in vitro auto-PARylation, western blot and [32P]NAD+ autoradiography (PARP1 [4])
NC(=O)c1ccc[n+]([C@@H]2O[C@H](COP(=O)(O)OP(=O)(O)OC[C@H]3O[C@@H](n4cnc5c(N)ncnc54)[C@H](OP(=O)(O)O)[C@@H]3O)[C@@H](O)[C@H]2O)c1 [NADP^+]	found that PARP1, PARP2, and PARP10 indeed were able to bind NADP^+ (Fig. 3a)	found that PARP1, PARP2, and PARP10 indeed were able to bind NADP^+ (Fig. 3a)	Formation of NADP^+ by our recombinant protein was confirmed by mass spectrometry	~39		
NC(=O)c1ccc[n+]([C@@H]2O[C@H](COP(=O)([O-])OP(=O)(O)OC[C@H]3O[C@@H](n4cnc5c(N)ncnc54)[C@H](O)[C@@H]3O)[C@@H](O)[C@H]2O)c1 [NAD^+]			recombinant NADK protein that can transfer phosphate moiety from ATP to NAD^+ to synthesize NADP^+		Auto-MARylation of PARP10 was examined by autoradiography	with NAD^+, PARP1 quickly synthesized PAR chains and autoPARylated itself

From paper PMC6370829, “NADP^+ is an endogenous PARP inhibitor in DNA damage response and tumor suppression” (Nature Communications, 2019)
